Experimental data as given in publication PMC5642494 (Oncotarget, 2017).
pEC50: −log10 of the molar value. Where two headings read alike, the source gives them in different places.

How the values were obtained:
Assay type in all cases: cell-based, human
H3K9me3 = experiment: Hypermethylation of histone H3 at lysine 9 (H3K9me3), EFM-19; details: 2 DT, n = 1, read-out: EC50 H3K9me3 levels
Experimental: Relative IC50/EC50 values were determined by curve fitting to a four parameter logistic equation: Y = bottom + ((top-bottom)/ (1+exp(HillSlope*(X – LnIC50)), where X is the natural log of dose/concentration, Y is response, decreasing as X increases, top and bottom are plateaus in the same units as Y, lnIC50 is the natural log of potency, in the same log units as X, and HillSlope measures the steepness of the curve. Data were plotted using GraphPad Prism.
BioResearch) where indicated; the dates of acquisition and in an Acumen Explorer Ex3 (TTP Labtech), raw data testing are listed in parentheses: ZR-75-1; T-47D; MDA- were analyzed with Cellista software and then further MB-468; HCC70; BT-549; BT-20; MDA-MB-231; MDA- normalized in Excel against the values obtained for cells MB-175-VII, HCC-1937; MDA-MB-415. treated with 2 µM BEZ235, or vehicle (0.2% v/v DMSO); data were graphed using GraphPad Prism®. Images were SA-β-galactosidase immunocytochemical labeling taken by fluorescent microscopy using a Leica DMiL. […]
SA-β-gal Cell samples were lysed after treatment with expression was determined using the Senescence Cells 100 µL lysis buffer and transferred to a 96-well plate. […]
(§1) (BSA) (Invitrogen #15260-037) for 1 hour at 25°C. EdU Samples were analyzed by LC─MS/MS under the detection was performed using the Click-iT High Content conditions described below. […]

MDA-MB-361 cells = experiment: Annexin V/PI flow cytometry, MDA-MB-361; details: 3 DT (untreated 45.7%)
Experimental: Annexin V/PI staining was performed following the vendor’s specifications in MCF7 and MDA-MB-361 cells. […] Raw data were analyzed with FlowJo X software. Events were gated for debris exclusion and singlets selection. A minimum of 10,000 cells were analyzed per sample.

MCF7 cells = experiment: TCA metabolite profiling by LC/MS in MCF7; details: for pEC50: Homo sapiens, MCF7, MCF7, single experiment, read-out: EC50 α-ketoglutarate; for Aspartate level / Citrate level / Fumarate level / Glutamate level / Isocitrate level / Lactate level / Malate level / Pyruvate level / Succinate level / α-ketoglutarate level: MCF7, 3 DT, normalized to DMSO = 1, n = 3
Experimental: MCF7 cells were plated at 20,000 cells/well in 24-well plate; approximately 14–24 hours after seeding, cells were treated with DMSO (vehicle) or the indicated compounds diluted in DMSO. Cells were incubated for three different incubation times: 48 hours (1 DT), 96 hours (2 DT), and […] (3 DT). After treatment, cells were harvested and the collected pellet was stored at -80°C. For additional details see Supplemental Methods and Supplementary Table 1. […]
SA-β-gal Cell samples were lysed after treatment with expression was determined using the Senescence Cells 100 µL lysis buffer and transferred to a 96-well plate.
Histochemical Staining Kit (Sigma, CS0030) following 30 µL of each sample were transferred into deep well the vendor ’s manual. Images were taken at 100x by bright plates using TECAN-EVO Workstation. Samples were field microscopy (Leica DMiL). treated for derivatization of the metabolites of interest and internal standards. For this, 50 µL of derivatization reagent
Proliferation studies after washouts (EdU Click- and 80 µL of internal standard (IS, SupplementaryTable iT®) 1), were added with multidrop, plates were vortexed for 5 mins and let sit for one hour at 4 °C. The IS used were the Cells were plated onto poly-D-lysine D or 13C-labeled commercial analogues of nine of the ten coated 96-well plates at a density of 2,000–6,000 metabolites, prepared at 25 µM in water (Supplementary viable cells per well, and treated with abemaciblib or Table 1). The derivatization reagents (from Sigma), palbociclib at 1µM following the cell treatment and 3-nitrophenylhydrazine (0.5 M) and the coupling buffer washout schedule shown on Supplementary Figure 1A. [N-(3-Dimethylaminopropyl)-N′-ethylcarbodiimide An EdU (5-ethynyl-2’-deoxyuridine) pulse was added hydrochloride (1M) were freshly prepared in 75:24:1 one hour prior to the end of study at a final concentration methanol/water/pyridine. of 10 µM as described in the kit protocol (Click-iT After derivatization, a liquid-liquid extraction step High Content Imaging EdU Incorporation kit (Life with ethyl acetate was carried out in two steps; the upper Technologies cat# C10351)). The cells were then fixed phase was transferred to a new deep-well plate with in the presence of 3.7% formaldehyde for 20 minutes at TECAN-EVO, and the joint extract was evaporated to 37°C, and permeabilized with 0.1% Triton-X 100 in PBS dryness with nitrogen, and reconstituted with 50% H2O/ for 10 minutes at 25°C, then washed twice with PBS. MetOH. A set of calibrants at 12 levels of the analytes They were blocked using 1% bovine serum albumin was derivatized in parallel following the same protocol.
as §1
Mass Spectrometer (qQq) with JetStream Electrospray
Objects were identified using an algorithm to Ionization (ESI) Source, coupled to a LC1290 Infinity detect nuclear staining with Hoechst 33342 dye. The High-Performance Liquid Chromatograph. The software relative levels and sub-cellular localization of EdU were for data collection and treatment was Agilent Masshunter determined through the respective intensities and locations Workstation. Mobile phases for chromatography were: of Alexa-488 fluorescence. mobile phase A: formic acid (5 mM) and ammonium formate (10 mM) in water; mobile phase B: acetonitrile.
Assessment of hypermethylation of histone H3 at 50% Acetonitrile/water were used to clean the lysine 9 (H3K9me3) injection needle after each injection. A reverse-phase chromatographic column (XBridge BEH C18 3.5 µm, MCF7 and EFM-19 cells were plated in 96-well 2.1 × 50 mm) from […] plates and treated at 20 µM (or a 3-fold dilution series) was used as stationary phase. Chromatographic separation […]
Tecan Genesis RSP100 liquid-handling system was used mobile phase A in 6 min; then to 5% in 0.1 min, maintained […]

## CCN1CCN(Cc2ccc(Nc3ncc(F)c(-c4cc(F)c5nc(C)n(C(C)C)c5c4)n3)nc2)CC1 [abemaciclib, Abemaciclib]
H3K9me3; EFM-19
  pEC50: 7.64
H3K9me3; Homo sapiens, EFM-19, EFM-19
  pEC50: 7.64
MDA-MB-361 cells; 0.5 µM
  cells positive for annexin V: 84.6%
MDA-MB-361 cells; 2 µM
  cells positive for annexin V: 88.8%
MCF7 cells; 1 DT
  pEC50: 6.43
MCF7 cells; 2 DT
  pEC50: 6.55
MCF7 cells; 3DT
  pEC50: 6.14
MCF7 cells; 0.5 µM
  Aspartate level: 0.72 ± 0.10
  Citrate level: 1.20 ± 0.27
  Fumarate level: 0.12 ± 0.02
  Glutamate level: 0.71 ± 0.06
  Isocitrate level: 1.90 ± 0.65
  Lactate level: 0.30 ± 0.02
  Malate level: 0.22 ± 0.01
  Pyruvate level: 1.22 ± 0.64
  Succinate level: 0.35 ± 0.08
  α-ketoglutarate level: 0.13 ± 0.03
MCF7 cells; 2 µM
  Aspartate level: 0.47 ± 0.13
  Citrate level: 1.07 ± 0.3
  Fumarate level: 0.12 ± 0.07
  Glutamate level: 1.10 ± 0.38
  Isocitrate level: 0.81 ± 0.52
  Lactate level: 0.38 ± 0.15
  Malate level: 0.09 ± 0.03
  Pyruvate level: 3.59 ± 1.65
  Succinate level: 0.65 ± 0.23
  α-ketoglutarate level: 0.08 ± 0.02
